Test results published in ChEMBL document CHEMBL5724914, “Linking interpersonal differences in gut microbiota composition and drug biotransformation activity” (2024).

How the values were obtained:
[1] = (§1) The drug is tested on Z-012 corresponding to metagenome with ENA study accession number: PRJEB37062 and ENA sample accession number: ERS12561812 for biotransformation under anaerobic condition. The drug concentrations were measured over 9 timepoints collected between 0 and 24 hours of incubation by liquid-chromatography-coupled mass spectrometry (LC–MS); details: 2 µM
[2] = (§2) The drug is tested on WLS-086 corresponding to human gut metagenome with ENA study accession number: PRJEB37062 and ENA sample accession number: ERS12561752 for biotransformation under anaerobic condition. The drug concentrations were measured over 9 timepoints collected between 0 and 24 hours of incubation by liquid-chromatography-coupled mass spectrometry (LC–MS); details: 2 µM
[3] = human gut metagenome, 24 h, 2 µM
[4] = as §2, with “WLS-170” for “WLS-086”, “ERS12561762” for “ERS12561752”; details: 2 µM
[5] = as §2, with “Z-029” for “WLS-086”, “rat” for “human”, “ERS12561828” for “ERS12561752”; details: 2 µM
[6] = human gut metagenome, 24 h, 2 µM; remark: listed apart in the source
[7] = as §1, with “Z-026” for “Z-012”, “ERS12561825” for “ERS12561812”; details: 2 µM
[8] = human gut metagenome, 24 h, 2 µM; remark: listed apart in the source
[9] = as §2, with “Z-020” for “WLS-086”, “rabbit” for “human”, “ERS12561819” for “ERS12561752”; details: 2 µM
[10] = human gut metagenome, 24 h, 2 µM; remark: listed apart in the source
[11] = as §2, with “WLS-082” for “WLS-086”, “ERS12561751” for “ERS12561752”; details: 2 µM
[12] = human gut metagenome, 24 h, 2 µM; remark: listed apart in the source
[13] = human gut metagenome, 24 h, 2 µM; remark: listed apart in the source
[14] = as §2, with “Z-014” for “WLS-086”, “rat” for “human”, “ERS12561814” for “ERS12561752”; details: 2 µM
[15] = as §2, with “Z-017” for “WLS-086”, “mouse” for “human”, “ERS12561816” for “ERS12561752”; details: 2 µM
[16] = as §2, with “WLS-010” for “WLS-086”, “ERS12561743” for “ERS12561752”; details: 2 µM
[17] = human gut metagenome, 24 h, 2 µM; remark: listed apart in the source
[18] = as §2, with “Z-022” for “WLS-086”, “mouse” for “human”, “ERS12561821” for “ERS12561752”; details: 2 µM
[19] = human gut metagenome, 24 h, 2 µM; remark: listed apart in the source
[20] = as §1, with “Z-023” for “Z-012”, “ERS12561822” for “ERS12561812”; details: 2 µM
Also: call rule not given here.

Row | Bacterial Biotransformation [1] | Bacterial Biotransformation [2] | Bacterial Biotransformation [3] | Bacterial Biotransformation [4] | Bacterial Biotransformation [5] | Bacterial Biotransformation [6] | Bacterial Biotransformation [7] | Bacterial Biotransformation [8] | Bacterial Biotransformation [9] | Bacterial Biotransformation [10] | Bacterial Biotransformation [11] | Bacterial Biotransformation [12] | Bacterial Biotransformation [13] | Bacterial Biotransformation [14] | Bacterial Biotransformation [15] | Bacterial Biotransformation [16] | Bacterial Biotransformation [17] | Bacterial Biotransformation [18] | Bacterial Biotransformation [19] | Bacterial Biotransformation [20] | SMILES
1 | Compound NOT metabolized | Compound NOT metabolized | Compound NOT metabolized | Compound NOT metabolized | Compound NOT metabolized | Compound NOT metabolized | Compound metabolized | Compound NOT metabolized | Compound metabolized | Compound NOT metabolized | Compound metabolized | Compound NOT metabolized | Compound NOT metabolized | Compound metabolized | Compound NOT metabolized | Compound metabolized | Compound NOT metabolized | Compound metabolized | Compound NOT metabolized | Compound metabolized | CC(=O)O[C@H]1C(=O)[C@@]2(C)[C@H]([C@H](OC(=O)c3ccccc3)[C@]3(O)C[C@H](OC(=O)[C@H](O)[C@@H](NC(=O)c4ccccc4)c4ccccc4)C(C)=C1C3(C)C)[C@]1(OC(C)=O)CO[C@@H]1C[C@@H]2O [PACLITAXEL]
2 | Compound metabolized | Compound metabolized | Compound metabolized | Compound metabolized | Compound NOT metabolized | Compound metabolized | Compound NOT metabolized | Compound metabolized | Compound metabolized | Compound NOT metabolized | Compound metabolized | Compound metabolized | Compound metabolized | Compound NOT metabolized | Compound NOT metabolized | Compound metabolized | Compound metabolized | Compound metabolized | Compound metabolized | Compound metabolized | CC(C)(C)N.CCC[C@H](N[C@@H](C)C(=O)N1[C@H](C(=O)O)C[C@@H]2CCCC[C@@H]21)C(=O)OCC [PERINDOPRIL ERBUMINE]
3 | Compound NOT metabolized | Compound metabolized | Compound metabolized | Compound metabolized | Compound NOT metabolized | Compound NOT metabolized | Compound NOT metabolized | Compound metabolized | Compound NOT metabolized | Compound NOT metabolized | Compound NOT metabolized | Compound metabolized | Compound metabolized | Compound NOT metabolized | Compound NOT metabolized | Compound NOT metabolized | Compound metabolized | Compound NOT metabolized | Compound NOT metabolized | Compound NOT metabolized | C=C[C@H]1CN2CC[C@H]1C[C@H]2[C@H](O)c1ccnc2ccc(OC)cc12.C=C[C@H]1CN2CC[C@H]1C[C@H]2[C@H](O)c1ccnc2ccc(OC)cc12.O.O.O=S(=O)(O)O [QUININE SULFATE]
4 | Compound NOT metabolized | Compound metabolized | Compound NOT metabolized | Compound NOT metabolized | Compound NOT metabolized | Compound NOT metabolized | Compound NOT metabolized | Compound NOT metabolized | Compound NOT metabolized | Compound NOT metabolized | Compound NOT metabolized | Compound NOT metabolized | Compound NOT metabolized | Compound NOT metabolized | Compound NOT metabolized | Compound metabolized | Compound NOT metabolized | Compound NOT metabolized | Compound NOT metabolized | Compound metabolized | O=C(NC(Cc1cc(=O)[nH]c2ccccc12)C(=O)O)c1ccc(Cl)cc1 (stereo not given) [REBAMIPIDE]
5 | Compound metabolized | Compound metabolized | Compound NOT metabolized | Compound metabolized | Compound NOT metabolized | Compound metabolized | Compound NOT metabolized | Compound metabolized | Compound metabolized | Compound NOT metabolized | Compound metabolized | Compound metabolized | Compound metabolized | Compound NOT metabolized | Compound metabolized | Compound metabolized | Compound metabolized | Compound metabolized | Compound metabolized | Compound metabolized | CCOc1cc(CC(=O)N[C@@H](CC(C)C)c2ccccc2N2CCCCC2)ccc1C(=O)O [REPAGLINIDE]

Further lines, the molecule ahead of its results:

Row | SMILES | Bacterial Biotransformation [1] | Bacterial Biotransformation [2] | Bacterial Biotransformation [3] | Bacterial Biotransformation [4] | Bacterial Biotransformation [5] | Bacterial Biotransformation [6] | Bacterial Biotransformation [7] | Bacterial Biotransformation [8] | Bacterial Biotransformation [9] | Bacterial Biotransformation [10] | Bacterial Biotransformation [11] | Bacterial Biotransformation [12] | Bacterial Biotransformation [13] | Bacterial Biotransformation [14] | Bacterial Biotransformation [15] | Bacterial Biotransformation [16] | Bacterial Biotransformation [17] | Bacterial Biotransformation [18] | Bacterial Biotransformation [19] | Bacterial Biotransformation [20]
6 | Cc1ccccc1C(OCCN(C)C)c1ccccc1.O=C(O)CC(O)(CC(=O)O)C(=O)O (stereo not given) [ORPHENADRINE CITRATE] | Compound NOT metabolized | Compound NOT metabolized | Compound metabolized | Compound metabolized | Compound NOT metabolized | Compound metabolized | Compound NOT metabolized | Compound NOT metabolized | Compound metabolized | Compound NOT metabolized | Compound NOT metabolized | Compound NOT metabolized | Compound NOT metabolized | Compound NOT metabolized | Compound NOT metabolized | Compound metabolized | Compound metabolized | Compound NOT metabolized | Compound metabolized | Compound metabolized
7 | CC(=O)CCCCn1c(=O)c2c(ncn2C)n(C)c1=O [PENTOXIFYLLINE] | Compound NOT metabolized | Compound metabolized | Compound metabolized | Compound metabolized | Compound NOT metabolized | Compound NOT metabolized | Compound NOT metabolized | Compound NOT metabolized | Compound NOT metabolized | Compound NOT metabolized | Compound NOT metabolized | Compound NOT metabolized | Compound metabolized | Compound NOT metabolized | Compound NOT metabolized | Compound NOT metabolized | Compound metabolized | Compound NOT metabolized | Compound metabolized | Compound NOT metabolized
8 | CCCN1C[C@H](CSC)C[C@@H]2c3cccc4[nH]cc(c34)C[C@H]21.CS(=O)(=O)O [PERGOLIDE MESYLATE] | Compound NOT metabolized | Compound metabolized | Compound NOT metabolized | Compound NOT metabolized | Compound NOT metabolized | Compound NOT metabolized | Compound NOT metabolized | Compound NOT metabolized | Compound NOT metabolized | Compound NOT metabolized | Compound NOT metabolized | Compound NOT metabolized | Compound NOT metabolized | Compound NOT metabolized | Compound NOT metabolized | Compound NOT metabolized | Compound NOT metabolized | Compound NOT metabolized | Compound NOT metabolized | Compound NOT metabolized
